Reference: PubChem BioAssay AID1259407 (Chemical Carcinogenesis Research Information System (CCRIS), 2018)
Calls of active or inactive are those of the source. The rule behind the calls is not given here.

Tested on: CCRIS mutagenicity, Ames/micronucleus/aberration tests
Test: CCRIS mutagenicity studies
[1] = Test System: AMES SALMONELLA TYPHIMURIUM, Strain/Indicator: TA97, Metabolic Activation: NONE, Method: STANDARD PLATE
[2] = Test System: AMES SALMONELLA TYPHIMURIUM, Strain/Indicator: TA97, Metabolic Activation: RAT, LIVER, S-9, AROCLOR 1254, Method: STANDARD PLATE
[3] = Test System: AMES SALMONELLA TYPHIMURIUM, Strain/Indicator: TA98, Metabolic Activation: NONE, Method: STANDARD PLATE
[4] = Test System: AMES SALMONELLA TYPHIMURIUM, Strain/Indicator: TA98, Metabolic Activation: RAT, LIVER, S-9, AROCLOR 1254, Method: STANDARD PLATE
[5] = Test System: AMES SALMONELLA TYPHIMURIUM, Strain/Indicator: TA100, Metabolic Activation: NONE, Method: STANDARD PLATE
[6] = Test System: AMES SALMONELLA TYPHIMURIUM, Strain/Indicator: TA100, Metabolic Activation: RAT, LIVER, S-9, AROCLOR 1254, Method: STANDARD PLATE
[7] = Test System: AMES SALMONELLA TYPHIMURIUM, Strain/Indicator: TA1537, Metabolic Activation: NONE, Method: STANDARD PLATE
[8] = Test System: AMES SALMONELLA TYPHIMURIUM, Strain/Indicator: TA98, Metabolic Activation: NONE, Method: PREINCUBATION
[9] = Test System: AMES SALMONELLA TYPHIMURIUM, Strain/Indicator: TA100, Metabolic Activation: NONE, Method: PREINCUBATION

## N=C1C=CC(=C(c2ccc(N)cc2)c2ccc(N)cc2)C=C1
End Point: IN VITRO CHROMOSOMAL ABERRATIONS, Test System: CHO CELLS, Metabolic Activation: NONE
  mutagenic call: inactive; negative
End Point: IN VITRO CHROMOSOMAL ABERRATIONS, Test System: CHO CELLS, Metabolic Activation: RAT, LIVER, S-9, AROCLOR 1254
  mutagenic call: inactive; negative
[1]
  mutagenic call: inactive; negative
[2]
  mutagenic call: active; positive
Test System: AMES SALMONELLA TYPHIMURIUM, Strain/Indicator: TA97A, Metabolic Activation: NONE, Method: STANDARD PLATE
  mutagenic call: inactive; negative
Test System: AMES SALMONELLA TYPHIMURIUM, Strain/Indicator: TA97A, Metabolic Activation: RAT, LIVER, S-9, AROCLOR 1254, Method: STANDARD PLATE
  mutagenic call: inactive; negative
Test System: AMES SALMONELLA TYPHIMURIUM, Strain/Indicator: TA98, Metabolic Activation: HAMSTER, LIVER, S-9, AROCLOR 1254, Method: STANDARD PLATE
  mutagenic call: active; positive
[3]
  mutagenic call: active; positive
[4]
  mutagenic call: active; positive
Test System: AMES SALMONELLA TYPHIMURIUM, Strain/Indicator: TA100, Metabolic Activation: HAMSTER, LIVER, S-9, AROCLOR 1254, Method: STANDARD PLATE
  mutagenic call: active; positive
[5]
  mutagenic call: active; positive
[6]
  mutagenic call: active; positive
Test System: AMES SALMONELLA TYPHIMURIUM, Strain/Indicator: TA1535, Metabolic Activation: HAMSTER, LIVER, S-9, AROCLOR 1254, Method: STANDARD PLATE
  mutagenic call: inactive; negative
Test System: AMES SALMONELLA TYPHIMURIUM, Strain/Indicator: TA1535, Metabolic Activation: NONE, Method: STANDARD PLATE
  mutagenic call: inactive; negative
Test System: AMES SALMONELLA TYPHIMURIUM, Strain/Indicator: TA1535, Metabolic Activation: RAT, LIVER, S-9, AROCLOR 1254, Method: STANDARD PLATE
  mutagenic call: inactive; negative
Test System: AMES SALMONELLA TYPHIMURIUM, Strain/Indicator: TA1537, Metabolic Activation: HAMSTER, LIVER, S-9, AROCLOR 1254, Method: STANDARD PLATE
  mutagenic call: inactive; negative
[7]
  mutagenic call: inactive; negative
Test System: AMES SALMONELLA TYPHIMURIUM, Strain/Indicator: TA1537, Metabolic Activation: RAT, LIVER, S-9, AROCLOR 1254, Method: STANDARD PLATE
  mutagenic call: inactive; negative
Test System: E. COLI, Strain/Indicator: WP2 UVRA, Metabolic Activation: HAMSTER, LIVER, S-9, AROCLOR 1254, Method: STANDARD PLATE
  mutagenic call: inactive; negative
Test System: E. COLI, Strain/Indicator: WP2 UVRA, Metabolic Activation: HAMSTER, LIVER, S-9, Method: STANDARD PLATE
  mutagenic call: inactive; negative
Test System: E. COLI, Strain/Indicator: WP2 UVRA, Metabolic Activation: MOUSE, LIVER, S-9, AROCLOR 1254, Method: STANDARD PLATE
  mutagenic call: inactive; negative
Test System: E. COLI, Strain/Indicator: WP2 UVRA, Metabolic Activation: MOUSE, LIVER, S-9, Method: STANDARD PLATE
  mutagenic call: inactive; negative
Test System: E. COLI, Strain/Indicator: WP2 UVRA, Metabolic Activation: NONE, Method: STANDARD PLATE
  mutagenic call: inactive; negative
Test System: E. COLI, Strain/Indicator: WP2 UVRA, Metabolic Activation: RAT, LIVER, S-9, AROCLOR 1254, Method: STANDARD PLATE
  mutagenic call: inactive; negative
Test System: E. COLI, Strain/Indicator: WP2 UVRA, Metabolic Activation: RAT, LIVER, S-9, Method: STANDARD PLATE
  mutagenic call: inactive; negative
Test System: MOUSE LYMPHOMA, Strain/Indicator: L5178Y (TK+/TK-), Metabolic Activation: NONE, Method: SUSPENSION/PLATE
  mutagenic call: active; positive
Test System: MOUSE LYMPHOMA, Strain/Indicator: L5178Y (TK+/TK-), Metabolic Activation: RAT, LIVER, S-9, AROCLOR 1254, Method: SUSPENSION/PLATE
  mutagenic call: active; positive

## NCCCCCCCCCCC(=O)O
End Point: IN VITRO CHROMOSOMAL ABERRATIONS, Test System: CHINESE HAMSTER OVARY CELLS, Metabolic Activation: NONE
  mutagenic call: inactive; negative; precipitation occurred at 1000 ug/ml
End Point: IN VITRO CHROMOSOMAL ABERRATIONS, Test System: CHINESE HAMSTER OVARY CELLS, Metabolic Activation: RAT, LIVER, S-9, AROCLOR 1254
  mutagenic call: inactive; negative; precipitation occurred at 1000 ug/ml
Test System: UDS RAT HEPATOCYTES, Strain/Indicator: BROMODEOXYURIDINE INCORP, Metabolic Activation: NONE, Method: FLOW CYTOMETRIC ANALYSIS
  mutagenic call: inactive; negative

## Cc1ccc(-c2nc(-c3ccc(C)cc3C)[nH]c2-c2ccc(C)cc2)cc1
[3]
  mutagenic call: active; positive
Test System: AMES SALMONELLA TYPHIMURIUM, Strain/Indicator: TA98, Metabolic Activation: RAT LIVER S-9, 3-METHYLCHOLANTHRENE, SODIUM PHENOBARBITAL, Method: STANDARD PLATE
  mutagenic call: active; positive
[5]
  mutagenic call: active; positive
Test System: AMES SALMONELLA TYPHIMURIUM, Strain/Indicator: TA100, Metabolic Activation: RAT LIVER S-9, 3-METHYLCHOLANTHRENE, SODIUM PHENOBARBITAL, Method: STANDARD PLATE
  mutagenic call: active; positive

## Oc1ccc2ccc3c4ccc5ccccc5c4c4c(c3c2c1O)O4
Test System: AMES SALMONELLA TYPHIMURIUM, Strain/Indicator: TA97, Metabolic Activation: NONE, Method: PREINCUBATION
  mutagenic call: active; positive
[8]
  mutagenic call: active; positive
[9]
  mutagenic call: active; positive
Test System: AMES SALMONELLA TYPHIMURIUM, Strain/Indicator: TA104, Metabolic Activation: NONE, Method: PREINCUBATION
  mutagenic call: active; positive
Test System: CHINESE HAMSTER V-79, Strain/Indicator: V-79/6-THIOGUANINE, Metabolic Activation: NONE
  mutagenic call: active; positive

## COc1cc(O)c2c(c1)Cc1cc(C)cc(O)c1C2=O
[7]
  mutagenic call: inactive; negative
Test System: AMES SALMONELLA TYPHIMURIUM, Strain/Indicator: TA1537, Metabolic Activation: S-9, Method: STANDARD PLATE
  mutagenic call: active; positive

## COc1nncc2cnccc12
[8]
  mutagenic call: inactive; negative
Test System: AMES SALMONELLA TYPHIMURIUM, Strain/Indicator: TA98, Metabolic Activation: RAT, LIVER, S-9, PCB, Method: PREINCUBATION
  mutagenic call: inactive; negative
[9]
  mutagenic call: inactive; negative
Test System: AMES SALMONELLA TYPHIMURIUM, Strain/Indicator: TA100, Metabolic Activation: RAT, LIVER, S-9, PCB, Method: PREINCUBATION
  mutagenic call: inactive; negative

## CC1C=Cc2ccc3ccc4ccccc4c3c21 (stereo not drawn)
[6]
  mutagenic call: inactive; negative

## C=C1C(=O)O[C@@H]2C[C@]3(C)[C@@H](CCC(C)=O)[C@@H]3C[C@H]12
Test System: AMES SALMONELLA TYPHIMURIUM, Strain/Indicator: TA104, Metabolic Activation: NONE, Method: STANDARD PLATE
  mutagenic call: inactive; negative
Test System: AMES SALMONELLA TYPHIMURIUM, Strain/Indicator: TA104, Metabolic Activation: RAT, LIVER, S-9, Method: STANDARD PLATE
  mutagenic call: inactive; negative

## O=[N+]([O-])c1ccc(-c2csc(Nc3ccccc3)n2)o1
Test System: E. COLI WP2, Strain/Indicator: WP2, Metabolic Activation: NONE, Method: SPOT
  mutagenic call: active; positive

## COP(=O)(OC)SC
[1]
  mutagenic call: inactive; negative
Test System: AMES SALMONELLA TYPHIMURIUM, Strain/Indicator: TA97, Metabolic Activation: RAT, LIVER, S-9, AROCLOR 1254, Method: PREINCUBATION
  mutagenic call: inactive; negative
[2]
  mutagenic call: inactive; negative
[3]
  mutagenic call: inactive; negative
Test System: AMES SALMONELLA TYPHIMURIUM, Strain/Indicator: TA98, Metabolic Activation: RAT, LIVER, S-9, AROCLOR 1254, Method: PREINCUBATION
  mutagenic call: inactive; negative
[4]
  mutagenic call: inactive; negative
[5]
  mutagenic call: inactive; negative
Test System: AMES SALMONELLA TYPHIMURIUM, Strain/Indicator: TA100, Metabolic Activation: RAT, LIVER, S-9, AROCLOR 1254, Method: PREINCUBATION
  mutagenic call: inactive; negative
[6]
  mutagenic call: inactive; negative
